{"source": "paper PMC9632963", "about": "“Preclinical characterization and phase I clinical trial of CT053PTSA targets MET, AXL, and VEGFR2 in patients with advanced solid tumors” (Frontiers in Immunology, 2022)", "assay": "Phase I trial: clinical pharmacokinetics in plasma", "type": "in vivo, human", "conditions": "for AUC(0-inf) / Cmax / AUC(0-t) / AUC / half-life / Tmax / Vd/F: human, plasma; for AUC(0-t): read-out: AUC0-168; for AUC: read-out: AUC0-τ; for Vd/F: read-out: Vz/F", "procedure": "A clinical pharmacokinetic study of CT053PTSA was performed for both single doses and multiple doses. Blood samples were collected from each subject at prespecified times before and after single-dose administration (systemic blood samples: before treatment and 0.5, 1, 2, 3, 4, 5, 8, 12, 24, 36, 48, 72, 120 and 168 hours after treatment) and during multiple dosing (cycle 1 before treatment on Days 8, 15 and 22, as well as systemic blood samples on Day 28). […]\nStatistical analysis of CT053-treated tumors versus vehicle-treated tumors or versus nontreated tumors was performed by repeated-measures ANOVA. The data from the tumor xenograft models were expressed as the means ± standard error of the mean (SEM) and were plotted as a function of time. Noncompartmental pharmacokinetic analysis was performed using Phoenix WinNonlin Version 6.2.1 (Certara Inc., NJ, USA). Demographics and laboratory results of all the subjects were summarized using descriptive statistics. The pharmacokinetic parameters Tmax and T1/2 were shown as the median (min, max) and mean ± SD, respectively. A two-sided P < 0.05 was considered to indicate statistical significance. Statistical analysis was performed by using GraphPad Prism 5.0 (GraphPad Prism, RRID : SCR_002798) and SPSS software version 19.0 (SPSS, RRID : SCR_002865).", "key": {"[1]": {"conditions": "oral, 15 mg, Multiple doses day 28, 15 mg, n=1"}, "[2]": {"conditions": "oral, 15 mg, Single dose day 1, 15 mg, n=1"}, "[3]": {"conditions": "oral, 30 mg, Multiple doses day 28, 30 mg, n=1"}, "[4]": {"conditions": "oral, 30 mg, Single dose day 1, 30 mg, n=1"}, "[5]": {"conditions": "oral, 60 mg, Multiple doses day 28, 60 mg, n=3, Geometric Mean (CV%)"}, "[6]": {"conditions": "oral, 60 mg, Single dose day 1, 60 mg, n=5, Geometric Mean (CV%)"}, "[7]": {"conditions": "oral, 100 mg, Multiple doses day 28, 100 mg, n=5, Geometric Mean (CV%)"}, "[8]": {"conditions": "oral, 100 mg, Single dose day 1, 100 mg, n=7, Geometric Mean (CV%)"}, "[9]": {"conditions": "oral, 150 mg, Multiple doses day 28, 150 mg, n=1"}, "[10]": {"conditions": "oral, 150 mg, Single dose day 1, 150 mg, n=4, Geometric Mean (CV%)"}}, "note": "Read-outs that look alike come from different tables or passages of the source.", "data": [{"smiles": "Cc1c(C(=O)Nc2ccc(Oc3ccnc4cc(OCC(C)(C)O)ccc34)c(F)c2)c(=O)n(-c2ccccc2)n1C", "note": "[CT053PTSA]", "values": [{"measurement": "Cl/F", "setting": "Multiple doses day 28, 15 mg, n=1", "value": 1580, "unit": "mL/h"}, {"measurement": "Cl/F", "setting": "Multiple doses day 28, 30 mg, n=1", "value": 1090, "unit": "mL/h"}, {"measurement": "Cl/F", "setting": "Multiple doses day 28, 150 mg, n=1", "value": 4470, "unit": "mL/h"}, {"measurement": "Cl/F", "setting": "Single dose day 1, 15 mg, n=1", "value": 2420, "unit": "mL/h"}, {"measurement": "Cl/F", "setting": "Single dose day 1, 30 mg, n=1", "value": 1000, "unit": "mL/h"}, {"measurement": "steady state reached", "setting": "daily dosing", "value": "≤ 8", "unit": "days"}, {"measurement": "AUC(0-inf)", "setting": "[1]", "value": 24000, "unit": "ng·h/mL"}, {"measurement": "Cmax", "setting": "[1]", "value": 598, "unit": "ng/mL"}, {"measurement": "AUC(0-t)", "setting": "[1]", "value": 23700, "unit": "ng·h/mL"}, {"measurement": "AUC", "setting": "[1]", "value": 9510, "unit": "ng·h/mL"}, {"measurement": "half-life", "setting": "oral, 15 mg, Multiple doses day 28, 15 mg, n=1, read-out: T1/2 (converted)", "value": 27.9, "unit": "h"}, {"measurement": "Tmax", "setting": "oral, 15 mg, Multiple doses day 28, 15 mg, n=1, read-out: Tmax", "value": 2, "unit": "h"}, {"measurement": "Vd/F", "setting": "[1]", "value": 63.5, "unit": "L"}, {"measurement": "AUC(0-inf)", "setting": "[2]", "value": 6190, "unit": "ng·h/mL"}, {"measurement": "Cmax", "setting": "[2]", "value": 345, "unit": "ng/mL"}, {"measurement": "AUC(0-t)", "setting": "[2]", "value": 6120, "unit": "ng·h/mL"}, {"measurement": "AUC", "setting": "[2]", "value": 3760, "unit": "ng·h/mL"}, {"measurement": "half-life", "setting": "oral, 15 mg, Single dose day 1, 15 mg, n=1, read-out: T1/2 (converted)", "value": 31.4, "unit": "h"}, {"measurement": "Tmax", "setting": "oral, 15 mg, Single dose day 1, 15 mg, n=1, read-out: Tmax", "value": 3, "unit": "h"}, {"measurement": "Vd/F", "setting": "[2]", "value": 110, "unit": "L"}, {"measurement": "AUC(0-inf)", "setting": "[3]", "value": 84100, "unit": "ng·h/mL"}, {"measurement": "Cmax", "setting": "[3]", "value": 1790, "unit": "ng/mL"}, {"measurement": "AUC(0-t)", "setting": "[3]", "value": 81200, "unit": "ng·h/mL"}, {"measurement": "AUC", "setting": "[3]", "value": 27600, "unit": "ng·h/mL"}, {"measurement": "half-life", "setting": "oral, 30 mg, Multiple doses day 28, 30 mg, n=1, read-out: T1/2 (converted)", "value": 38.4, "unit": "h"}, {"measurement": "Tmax", "setting": "oral, 30 mg, Multiple doses day 28, 30 mg, n=1, read-out: Tmax", "value": 2, "unit": "h"}, {"measurement": "Vd/F", "setting": "[3]", "value": 60.2, "unit": "L"}, {"measurement": "AUC(0-inf)", "setting": "[4]", "value": 29900, "unit": "ng·h/mL"}, {"measurement": "Cmax", "setting": "[4]", "value": 796, "unit": "ng/mL"}, {"measurement": "AUC(0-t)", "setting": "[4]", "value": 29100, "unit": "ng·h/mL"}, {"measurement": "AUC", "setting": "[4]", "value": 12300, "unit": "ng·h/mL"}, {"measurement": "half-life", "setting": "oral, 30 mg, Single dose day 1, 30 mg, n=1, read-out: T1/2 (converted)", "value": 31.9, "unit": "h"}, {"measurement": "Tmax", "setting": "oral, 30 mg, Single dose day 1, 30 mg, n=1, read-out: Tmax", "value": 3, "unit": "h"}, {"measurement": "Vd/F", "setting": "[4]", "value": 46.2, "unit": "L"}, {"measurement": "AUC(0-inf)", "setting": "[5]", "value": 91100, "unit": "ng·h/mL"}, {"measurement": "Cmax", "setting": "[5]", "value": 2720, "unit": "ng/mL"}, {"measurement": "AUC(0-t)", "setting": "[5]", "value": 89700, "unit": "ng·h/mL"}, {"measurement": "AUC", "setting": "[5]", "value": 37000, "unit": "ng·h/mL"}, {"measurement": "Vd/F", "setting": "[5]", "value": 60.5, "unit": "L"}, {"measurement": "half-life", "setting": "oral, 60 mg, Multiple doses day 28, 60 mg, n=3, Mean ± SD, read-out: T1/2 (converted)", "value": "26.1 ± 4.5", "unit": "h"}, {"measurement": "Tmax", "setting": "oral, 60 mg, Multiple doses day 28, 60 mg, n=3, Median (Min, Max), read-out: Tmax", "value": 2, "unit": "h"}, {"measurement": "AUC(0-inf)", "setting": "[6]", "value": 29200, "unit": "ng·h/mL"}, {"measurement": "Cmax", "setting": "[6]", "value": 1340, "unit": "ng/mL"}, {"measurement": "AUC(0-t)", "setting": "[6]", "value": 28700, "unit": "ng·h/mL"}, {"measurement": "AUC", "setting": "[6]", "value": 13700, "unit": "ng·h/mL"}, {"measurement": "Vd/F", "setting": "[6]", "value": 71.8, "unit": "L"}, {"measurement": "half-life", "setting": "oral, 60 mg, Single dose day 1, 60 mg, n=5, Mean ± SD, read-out: T1/2 (converted)", "value": "24.7 ± 5.7", "unit": "h"}, {"measurement": "Tmax", "setting": "oral, 60 mg, Single dose day 1, 60 mg, n=5, Median (Min, Max), read-out: Tmax", "value": 2, "unit": "h"}, {"measurement": "AUC(0-inf)", "setting": "[7]", "value": 156000, "unit": "ng·h/mL"}, {"measurement": "Cmax", "setting": "[7]", "value": 4330, "unit": "ng/mL"}, {"measurement": "AUC(0-t)", "setting": "[7]", "value": 146000, "unit": "ng·h/mL"}, {"measurement": "AUC", "setting": "[7]", "value": 57300, "unit": "ng·h/mL"}, {"measurement": "Vd/F", "setting": "[7]", "value": 90.9, "unit": "L"}, {"measurement": "half-life", "setting": "oral, 100 mg, Multiple doses day 28, 100 mg, n=5, Mean ± SD, read-out: T1/2 (converted)", "value": "38.2 ± 14.3", "unit": "h"}, {"measurement": "Tmax", "setting": "oral, 100 mg, Multiple doses day 28, 100 mg, n=5, Median (Min, Max), read-out: Tmax", "value": 2, "unit": "h"}, {"measurement": "AUC(0-inf)", "setting": "[8]", "value": 57700, "unit": "ng·h/mL"}, {"measurement": "Cmax", "setting": "[8]", "value": 1890, "unit": "ng/mL"}, {"measurement": "AUC(0-t)", "setting": "[8]", "value": 56000, "unit": "ng·h/mL"}, {"measurement": "AUC", "setting": "[8]", "value": 24400, "unit": "ng·h/mL"}, {"measurement": "Vd/F", "setting": "[8]", "value": 79.8, "unit": "L"}, {"measurement": "half-life", "setting": "oral, 100 mg, Single dose day 1, 100 mg, n=7, Mean ± SD, read-out: T1/2 (converted)", "value": "32.8 ± 8.5", "unit": "h"}, {"measurement": "Tmax", "setting": "oral, 100 mg, Single dose day 1, 100 mg, n=7, Median (Min, Max), read-out: Tmax", "value": 2, "unit": "h"}, {"measurement": "AUC(0-inf)", "setting": "[9]", "value": 50600, "unit": "ng·h/mL"}, {"measurement": "Cmax", "setting": "[9]", "value": 2930, "unit": "ng/mL"}, {"measurement": "AUC(0-t)", "setting": "[9]", "value": 50500, "unit": "ng·h/mL"}, {"measurement": "AUC", "setting": "[9]", "value": 33600, "unit": "ng·h/mL"}, {"measurement": "half-life", "setting": "oral, 150 mg, Multiple doses day 28, 150 mg, n=1, read-out: T1/2 (converted)", "value": 13.8, "unit": "h"}, {"measurement": "Tmax", "setting": "oral, 150 mg, Multiple doses day 28, 150 mg, n=1, read-out: Tmax", "value": 2, "unit": "h"}, {"measurement": "Vd/F", "setting": "[9]", "value": 88.7, "unit": "L"}, {"measurement": "AUC(0-inf)", "setting": "[10]", "value": 68500, "unit": "ng·h/mL"}, {"measurement": "Cmax", "setting": "[10]", "value": 2970, "unit": "ng/mL"}, {"measurement": "AUC(0-t)", "setting": "[10]", "value": 65500, "unit": "ng·h/mL"}, {"measurement": "AUC", "setting": "[10]", "value": 30500, "unit": "ng·h/mL"}, {"measurement": "Vd/F", "setting": "[10]", "value": 99.8, "unit": "L"}, {"measurement": "half-life", "setting": "oral, 150 mg, Single dose day 1, 150 mg, n=4, Mean ± SD, read-out: T1/2 (converted)", "value": "33.9 ± 13.7", "unit": "h"}, {"measurement": "Tmax", "setting": "oral, 150 mg, Single dose day 1, 150 mg, n=4, Median (Min, Max), read-out: Tmax", "value": 2.5, "unit": "h"}, {"measurement": "Tmax", "setting": "po, multiple doses, oral, read-out: median Tmax", "value": 2, "unit": "h"}, {"measurement": "half-life", "setting": "po, multiple oral doses, read-out: mean half-life, range over cohorts", "value": "13.8 to 38.4", "unit": "h"}, {"measurement": "Tmax", "setting": "po, single dose, oral, read-out: median Tmax", "value": "2 to 3", "unit": "h"}, {"measurement": "half-life", "setting": "po, single oral dose, read-out: mean half-life, range over cohorts", "value": "24.7 to 33.9", "unit": "h"}]}]}
